target: T1, Human FXRα Ligand Binding Domain (Homo sapiens, UniProt Q96RI1); test: FXR Cofactor Binding Assay (ligand mediated SRC-1 cofactor peptide interaction, time resolved fluorescence); format: biochemical; conditions: FXRα LBD / SRC-1 (LCD2, 676-700) peptide, TRF; read-out: Activity (pEC50) (converted)
T1 construct: polyhistidine (pRSET-A vector leader) (N); made in house; host or cells: E. coli BL21 (DE3), pRSET-A vector
T1 sequence (Q96RI1 237-472 isoform Q96RI1-2): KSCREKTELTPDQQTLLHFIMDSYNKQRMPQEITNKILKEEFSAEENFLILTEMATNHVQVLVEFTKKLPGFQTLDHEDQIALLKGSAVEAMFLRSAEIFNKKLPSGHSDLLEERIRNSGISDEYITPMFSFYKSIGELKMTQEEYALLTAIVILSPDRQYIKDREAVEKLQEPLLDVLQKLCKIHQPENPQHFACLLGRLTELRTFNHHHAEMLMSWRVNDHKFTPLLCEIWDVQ
Excerpt: Determination of a ligand mediated cofactor peptide interaction to quantify ligand binding to the nuclear receptor Farnesoid X Receptor (FXR). The method measures the ability of putative ligands to modulate the interaction between the purified bacterial expressed FXRα ligand binding domain (LBD) and a synthetic biotinylated peptide based on residues 676-700 of steroid receptor coactivator-1 (SRC-1) (LXXLL-containing domain-2 where L is the amino acid leucine and X indicates any other amino acid (LCD2), 676-700). The sequence of the SRC-1 peptide used is as published in Iannone, M. A., et al., 2001 Cytometry 44:326-337 where the N-terminus was biotinylated (B) and the C-terminus was amidated. Detection of the associated complex was measured by time resolved fluorescence (TRF). The purified LBD of FXR was labeled with biotin, then mixed with stoichiometric amounts of allophycocyanin (APC) labeled streptavidin (Molecular Probes). The biotinylated peptide was then mixed with a ½ stoichiometric amount of europium labeled streptavidin (Wallac Inc). Each was then blocked with a 5 fold excess of biotin and allowed to equilibrate for 15 min. Equimolar amounts of receptor and peptide were mixed together and were allowed to equilibrate for at least 30 min prior to the addition to either a variable or constant concentrations of the sample for which the affinity is to be determined. After equilibration, the time-resolved fluorescent signal was quantitated using a fluorescent plate reader. The affinity of the test compound was estimated from a plot of fluorescence versus concentration of test compound added.
Ligands that promote the complex formation induce a concentration-dependent increase in time-resolved fluorescent signal.
Human FXRα Ligand Binding Domain (FXRα LBD) was expressed in E. coli strain BL21 (DE3) as an amino-terminal polyhistidine tagged fusion protein. Expression was under the control of an isopropyl-β-D-thiogalactopyranoside (IPTG) inducible T7 promoter. DNA encoding this recombinant protein is subcloned into the pRSET-A expression vector (Invitrogen). The coding sequence of Human FXRα LBD was derived from Genbank accession number U 68233 (amino acids 237 to 472).
Ten-liter fermentation batches were grown in Rich PO4 media with 0.1 mg/mL Ampicillin at 25° C. for 12 hours, cooled to 9° C. and held at that temperature for 36 hours to a density of OD600=14. At this cell density, 0.25 mM IPTG is added and induction proceeded for 24 hours at 9° C., to a final OD600=16. Cells are harvested by centrifugation (20 minutes, 3500×gravity, 4° C.), and concentrated cell slurries were stored in phosphate buffered saline (PBS) at […].
Routinely, 30-40 g cell paste (equivalent to 2-3 liters of the fermentation batch) was resuspended in 200-250 mL Tris buffered saline (TBS), pH 7.2 (25 mM Tris-hydroxymethylamino methane (Tris), 150 mM sodium chloride). Cells were lysed by passing 3 times through a French Press and cell debris was removed by centrifugation (30 minutes, 20,000×gravity, 4° C.). The cleared supernatant was filtered through course pre-filters, and TBS, pH 7.2, 500 mM imidazole was added to obtain a final imidazole concentration of 50 mM. This lysate was loaded onto a column (6×8 cm) packed with Sepharose [Ni^++ charged] Chelation resin (Pharmacia) and pre-equilibrated with TBS pH 7.2/50 mM imidazole. After washing to baseline absorbance with equilibration buffer, the column was washed with one column volume of TBS pH 7.2 containing 90 mM imidazole. FXRα LBD was eluted directly with 365 mM imidazole. Column fractions were pooled and dialyzed against TBS, pH 7.2, containing 0.5 mM EDTA and 5 mM DTT. The dialyzed protein sample was concentrated using Centri-prep 10 K (Amicon) and subjected to size exclusion, using a column (3×90 cm) packed with Sepharose S-75 resin (Pharmacia) pre-equilibrated with TBS, pH 7.2, containing 0.5 mM ethylene diamine tetraacetic acid (EDTA) and 5 mM dithiothreitol (DTT).

| Compound | EC50 |
| --- | --- |
| CC(C)c1onc(COc2c(Cl)cc(F)cc2Cl)c1COc1ccc2c(ccn2Cc2cccc(C(=O)O)c2)c1 [Example 14, 3-{[5-({[3-{[(2,6-Dichloro-4-fluorophenyl)oxy]methyl}-5-(1-methylethyl)-4-isoxazolyl]methyl}oxy)-1H-indol-1-yl]methyl}benzoic acid] | 102 to 1000 nM |
| CC(C)c1onc(-c2c(Cl)cncc2Cl)c1COc1ccc2ccn(Cc3cccc(C(=O)O)c3)c2c1 [Example 8, 3-{[6-({[3-(3,5-dichloro-4-pyridinyl)-5-(1-methylethyl)-4-isoxazolyl]methyl}oxy)-1H-indol-1-yl]methyl}benzoic acid] | 102 to 1000 nM |
| CC(C)c1onc(COc2c(F)cc(F)cc2F)c1COc1ccc2c(ccn2Cc2cccc(C(=O)O)c2)c1 [Example 2, 3-[(5-{[(5-(1-methylethyl)-3-{[(2,4,6-trifluorophenyl)oxy]methyl}-4-isoxazolyl)methyl]oxy}-1H-indol-1-yl)methyl]benzoic acid] | 1020 to 10000 nM |
| CC(C)c1onc(-c2c(Cl)cccc2Cl)c1COc1ccc2ccc(-c3cccc(C(=O)O)c3)cc2c1 [Example 33, 3-[7-({[3-(2,6-Dichlorophenyl)-5-(1-methylethyl)-4-isoxazolyl]methyl}oxy)-2-naphthalenyl]benzoic acid] | 102 to 1000 nM |
| CC(C)c1onc(-c2c(Cl)cccc2Cl)c1COc1ccc2c(ccn2C(=O)c2cccc(C(=O)O)c2)c1 [Example 10, 3-{[5-({[3-(2,6-Dichlorophenyl)-5-(1-methylethyl)-4-isoxazoly]methyl}oxy)-1H-indol-1-yl]carbonyl}benzoic acid] | 102 to 1000 nM |
| CC(C)c1onc(-c2c(Cl)cccc2Cl)c1COc1ccc2cc(-c3ccc(C(=O)O)nc3)ccc2c1 [Example 19, 5-[6-({[3-(2,6-Dichlorophenyl)-5-(1-methylethyl)-4-isoxazolyl]methyl}oxy)-2-naphthalenyl]-2-pyridinecarboxylic acid] | 102 to 1000 nM |
| CC(C)c1onc(CSc2nccs2)c1COc1ccc2c(ccn2Cc2cccc(C(=O)O)c2)c1 [Example 6, 3-({5-[({5-(1-methylethyl)-3-[(1,3-thiazol-2-ylthio)methyl]-4-isoxazolyl}methyl)oxy]-1H-indol-1-yl}methyl)benzoic acid] | 1020 to 10000 nM |
| CC(C)c1onc(CNc2c(Cl)cccc2Cl)c1COc1ccc2c(ccn2Cc2cccc(C(=O)O)c2)c1 [Example 4, 3-{[5-({[3-{[(2,6-dichlorophenyl)amino]methyl}-5-(1-methylethyl)-4-isoxazolyl]methyl}oxy)-1H-indol-1-yl]methyl}benzoic acid] | 1020 to 10000 nM |
| Cc1cccc(C)c1OCc1noc(C(C)C)c1COc1ccc2c(ccn2Cc2cccc(C(=O)O)c2)c1 [Example 1, 3-{[5-({[3-{[(2,6-dimethylphenyl)oxy]methyl}-5-(1-methylethyl)-4-isoxazolyl]methyl}oxy)-1H-indol-1-yl]methyl}benzoic acid] | 102 to 1000 nM |
| CC(C)c1onc(-c2c(Cl)cccc2Cl)c1COc1ccc2cc(-c3cc(C(=O)O)ccn3)ccc2c1 [Example 21, 2-[6-({[3-(2,6-Dichlorophenyl)-5-(1-methylethyl)-4-isoxazolyl]methyl}oxy)-2-naphthalenyl]-4-pyridinecarboxylic acid] | 102 to 1000 nM |
| CC(C)c1onc(COc2c(Cl)cc(Cl)cc2Cl)c1COc1ccc2c(ccn2Cc2cccc(C(=O)O)c2)c1 [Example 3, 3-[(5-{[(5-(1-methylethyl)-3-{[(2,4,6-trichlorophenyl)oxy]methyl}-4-isoxazolyl)methyl]oxy}-1H-indol-1-yl)methyl]benzoic acid] | 102 to 1000 nM |
| CC(C)c1onc(COc2c(Cl)cccc2Cl)c1COc1ccc2c(ccn2Cc2cccc(C(=O)O)c2)c1 [Example 15, 3-{[5-({[3-{[(2,6-Dichlorophenyl)oxy]methyl}-5-(1-methylethyl)-4-isoxazolyl]methyl}oxy)-1H-indol-1-yl]methyl}benzoic acid] | 102 to 1000 nM |
| CC(C)c1onc(-c2c(Cl)cccc2Cl)c1COc1ccc2c(ccn2Cc2ccc(C(=O)O)cc2)c1 [Example 13, 4-{[5-({[3-(2,6-Dichlorophenyl)-5-(1-methylethyl)-4-isoxazolyl]methyl}oxy)-1H-indol-1-yl]methyl}benzoic acid] | 102 to 1000 nM |
| CC(C)c1onc(-c2c(Cl)cccc2Cl)c1COc1ccc2cc(-c3cccc(OC(F)(F)F)c3)ccc2c1 [Example 30, 3-(2,6-Dichlorophenyl)-5-(1-methylethyl)-4-{[(6-{3-[(trifluoromethyl)oxy]phenyl}-2-naphthalenyl)oxy]methyl}isoxazole] | 102 to 1000 nM |

Continued, values first:

| EC50 | Compound |
| --- | --- |
| 1020 to 10000 nM | CC(C)c1onc(-c2c(Cl)cccc2Cl)c1COc1ccc2c(c1)CC(=O)N(c1cccc(C(=O)O)c1)C2 [Example 45, 3-[6-({[3-(2,6-Dichlorophenyl)-5-(1-methylethyl)-4-isoxazolyl]methyl}oxy)-3-oxo-3,4-dihydro-2(1H)-isoquinolinyl]benzoic acid] |
| 102 to 1000 nM | Cc1ccc(Cn2ccc3cc(OCc4c(-c5c(Cl)cccc5Cl)noc4C(C)C)ccc32)cc1C(=O)O [Example 48, 5-{[5-({[3-(2,6-Dichlorophenyl)-5-(1-methylethyl)-4-isoxazolyl]methyl}oxy)-1H-indol-1-yl]methyl}-2-methylbenzoic acid] |
| 102 to 1000 nM | CC(C)c1onc(-c2c(Cl)cccc2Cl)c1COc1ccc2c(ccn2C(=O)N2CC[C@@H](C(=O)O)C2)c1 [Example 53, (3R)-1-{[5-({[3-(2,6-Dichlorophenyl)-5-(1-methylethyl)-4-isoxazolyl]methyl}oxy)-1H-indol-1-yl]carbonyl}-3-pyrrolidinecarboxylic acid] |
| 102 to 1000 nM | CC(C)c1onc(-c2c(Cl)cccc2Cl)c1COc1ccc2c(ccn2Cc2nc(C(=O)O)cs2)c1 [Example 51, 2-{[5-({[3-(2,6-Dichlorophenyl)-5-(1-methylethyl)-4-isoxazolyl]methyl}oxy)-1H-indol-1-yl]methyl}-1,3-thiazole-4-carboxylic acid] |
| 102 to 1000 nM | CC(C)c1onc(-c2c(Cl)cccc2Cl)c1CNc1nc2ccc(-c3cccc(C(=O)O)c3)cc2s1 [Example 37, 3-[2-({[3-(2,6-Dichlorophenyl)-5-(1-methylethyl)-4-isoxazolyl]methyl}amino)-1,3-benzothiazol-6-yl]benzoic acid] |
| 102 to 1000 nM | CC(C)c1onc(-c2c(Cl)cccc2Cl)c1COc1ccc2cc(-c3cccc(C(=O)O)c3)sc2c1 [Example 36, 3-[6-({[3-(2,6-Dichlorophenyl)-5-(1-methylethyl)-4-isoxazolyl]methyl}oxy)-1-benzothien-2-yl]benzoic acid] |
| 102 to 1000 nM | CC(C)c1onc(-c2c(Cl)cccc2Cl)c1COc1ccc2c(c1)CC(c1cccc(C(=O)O)c1)C2 (stereo not shown) [Example 57, 3-[5-({[3-(2,6-Dichlorophenyl)-5-(1-methylethyl)-4-isoxazolyl]methyl}oxy)-2,3-dihydro-1H-inden-2-yl]benzoic acid] |
| < 100 nM | CC(C)c1onc(-c2c(Cl)cccc2Cl)c1COc1ccc2sc(-c3cccc(C(=O)O)c3)cc2c1 [Example 54, 3-[5-({[3-(2,6-Dichlorophenyl)-5-(1-methylethyl)-4-isoxazolyl]methyl}oxy)-1-benzothien-2-yl]benzoic acid] |
